17 compounds from US8877778B2, “Benzofurane compounds” (Hoffmann-La Roche Inc., priority 2010, dated 2014) can be followed below.

pKi: −log10 of the molar value.

As usually defined, the pKi is the Ki on a negative log10 scale, so that one unit is a factor of ten. Usually melting point stands for the temperature of the solid-liquid transition.

The target in one series is human 5-HT2A receptor (Homo sapiens (Human), UniProt P28223). The experiment in a line: Radioligand binding ([3H]-ketanserin) to cloned receptors expressed in HEK-293 EBNA cells. The following applies: HEK293 EBNA cell membranes expressing human 5-HT2A. The gist of the method: (§1)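 Membranes from transiently transfected HEK293 EBNA cells incubated 1 h at RT with ten compound concentrations (10 μM–0.1 nM). D2/D3: [3H]-spiperone ~0.7/0.5 nM, Tris–NaCl–Mg/Ca buffer pH 7.4; 5-HT2A: [3H]-ketanserin 1.1 nM, Tris–MgCl2–EGTA pH 7.4.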
human 5-HT2A receptor, sequence (P28223 whole entry): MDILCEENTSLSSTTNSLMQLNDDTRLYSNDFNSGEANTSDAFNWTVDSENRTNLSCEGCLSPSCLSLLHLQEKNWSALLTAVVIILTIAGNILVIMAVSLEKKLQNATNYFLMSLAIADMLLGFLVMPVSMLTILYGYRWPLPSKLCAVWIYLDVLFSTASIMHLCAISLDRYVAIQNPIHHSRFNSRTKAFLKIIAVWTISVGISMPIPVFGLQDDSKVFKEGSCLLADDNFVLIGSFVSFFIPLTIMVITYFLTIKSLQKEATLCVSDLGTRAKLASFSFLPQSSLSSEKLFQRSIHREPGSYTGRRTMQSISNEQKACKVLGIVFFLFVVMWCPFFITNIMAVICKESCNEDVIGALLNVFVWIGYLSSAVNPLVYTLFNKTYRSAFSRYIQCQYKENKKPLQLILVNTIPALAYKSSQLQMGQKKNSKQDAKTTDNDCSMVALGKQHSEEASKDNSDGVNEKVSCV

Another series deals with human D3 receptor (Homo sapiens (Human), UniProt P35462). The experiment in a line: Radioligand binding ([3H]-spiperone) to cloned receptors expressed in HEK-293 EBNA cells. The following applies: HEK293 EBNA cell membranes expressing human D3. The gist of the method: as §1
human D3 receptor, sequence (P35462 whole entry): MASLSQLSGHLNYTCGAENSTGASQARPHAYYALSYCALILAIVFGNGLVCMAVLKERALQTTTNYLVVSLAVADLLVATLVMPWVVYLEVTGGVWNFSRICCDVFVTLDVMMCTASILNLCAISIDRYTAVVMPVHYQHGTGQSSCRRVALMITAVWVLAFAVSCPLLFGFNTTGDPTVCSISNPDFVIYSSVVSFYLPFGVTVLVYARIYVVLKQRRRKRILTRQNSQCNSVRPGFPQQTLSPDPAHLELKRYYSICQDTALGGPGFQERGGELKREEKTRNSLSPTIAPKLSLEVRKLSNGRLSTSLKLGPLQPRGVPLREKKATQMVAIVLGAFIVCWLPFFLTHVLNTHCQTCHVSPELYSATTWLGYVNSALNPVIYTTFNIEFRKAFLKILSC
A further series concerns the target human D2 receptor (Homo sapiens (Human), UniProt P14416). Described as above. The following applies: HEK293 EBNA cell membranes expressing human D2. The procedure, abridged: as §1

human D2 receptor, sequence (P14416 whole entry): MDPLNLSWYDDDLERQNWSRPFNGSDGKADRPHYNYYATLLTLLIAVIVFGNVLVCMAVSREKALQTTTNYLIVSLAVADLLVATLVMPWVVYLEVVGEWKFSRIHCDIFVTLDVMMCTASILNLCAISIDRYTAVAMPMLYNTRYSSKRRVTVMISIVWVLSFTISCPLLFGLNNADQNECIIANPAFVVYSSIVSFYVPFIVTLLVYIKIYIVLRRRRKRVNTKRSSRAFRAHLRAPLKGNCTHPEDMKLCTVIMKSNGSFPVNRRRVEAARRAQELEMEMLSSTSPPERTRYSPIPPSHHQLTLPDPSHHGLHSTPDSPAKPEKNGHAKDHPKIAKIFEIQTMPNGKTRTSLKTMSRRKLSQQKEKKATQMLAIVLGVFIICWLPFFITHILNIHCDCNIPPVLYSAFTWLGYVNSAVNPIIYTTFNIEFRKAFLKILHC

As for `Cc1ccc(C(=O)N[C@H]2CC[C@H](CCN3CCC(c4cccc5c4CCO5)CC3)CC2)cn1` [Example 42, trans-N-(4-{2-[4-(2,3-Dihydro-benzofuran-4-yl)-piperidin-1-yl]-ethyl}-cyclohexyl)-6-methyl-nicotinamide], the melting point was found to be 202 °C. The pKi at human 5-HT2A receptor is 7.60. Moreover, the pKi on human D3 receptor was 7.99. Moreover, on human D2 receptor, the pKi was 6.82.
The compound `O=C(N[C@H]1CC[C@H](CCN2CCC(c3cccc4c3CCO4)CC2)CC1)C(F)(F)F` [Example 43, trans-N-(4-{2-[4-(2,3-Dihydro-benzofuran-4-yl)-piperidin-1-yl]-ethyl}-cyclohexyl)-2,2,2-trifluoro-acetamide] registered a melting point of 173 °C. The pKi on human 5-HT2A receptor is 7.26. The pKi on human D3 receptor is 7.66. Moreover, on human D2 receptor, the pKi is 6.54.
On the same counts, the results for `CN1CCN(c2ccc(C(=O)N[C@H]3CC[C@H](CCN4CCC(c5cccc6c5CCO6)CC4)CC3)cc2)CC1` [Example 44, trans-N-(4-{2-[4-(2,3-Dihydro-benzofuran-4-yl)-piperidin-1-yl]-ethyl}-cyclohexyl)-4-(4-methyl-piperazin-1-yl)-benzamide] are 241 °C, 8.08, 8.22 and 6.83.
The compound `N#Cc1ccc(C(=O)N[C@H]2CC[C@H](CCN3CCC(c4cccc5c4CCO5)CC3)CC2)cc1` [Example 45, trans-4-Cyano-N-(4-{2-[4-(2,3-dihydro-benzofuran-4-yl)-piperidin-1-yl]-ethyl}-cyclohexyl)-benzamide] came in with a melting point of 230 °C. On human 5-HT2A receptor, the pKi was 7.65. Besides, the pKi at human D3 receptor was 8.10. Also, the pKi at human D2 receptor was 6.72.
`O=C(N[C@H]1CC[C@H](CCN2CCC(c3cccc4c3CCO4)CC2)CC1)c1ccc(N2CCOCC2)nc1` [Example 46, trans-N-(4-{2-[4-(2,3-Dihydro-benzofuran-4-yl)-piperidin-1-yl]-ethyl}-cyclohexyl)-6-morpholin-4-yl-nicotinamide] had a melting point of 228 °C. The pKi at human 5-HT2A receptor was 7.56. In addition, at human D3 receptor, the pKi was 7.79. The pKi on human D2 receptor is 6.04.
On the same counts, the results for `CS(=O)(=O)N[C@H]1CC[C@H](CCN2CCC(c3cccc4c3CCO4)CC2)CC1` [Example 47, trans-N-(4-{2-[4-(2,3-Dihydro-benzofuran-4-yl)-piperidin-1-yl]-ethyl}-cyclohexyl)-methanesulfonamide] are 152 °C, 7.45, 8.00 and 6.48.
On the same counts, the results for `CCS(=O)(=O)N[C@H]1CC[C@H](CCN2CCC(c3cccc4c3CCO4)CC2)CC1` [Example 48, Ethanesulfonic acid trans-(4-{2-[4-(2,3-dihydro-benzofuran-4-yl)-piperidin-1-yl]-ethyl}-cyclohexyl)-amide] are 131 °C, 7.46, 7.95 and 6.48.
On the same counts, the results for `O=S(=O)(N[C@H]1CC[C@H](CCN2CCC(c3cccc4c3CCO4)CC2)CC1)c1ccccc1` [Example 49, trans-N-(4-{2-[4-(2,3-Dihydro-benzofuran-4-yl)-piperidin-1-yl]-ethyl}-cyclohexyl)-benzenesulfonamide] are 130 °C, 7.10, 8.29 and 6.86.
`O=S(=O)(N[C@H]1CC[C@H](CCN2CCC(c3cccc4c3CCO4)CC2)CC1)c1ccc(F)cc1` [Example 50, trans-N-(4-{2-[4-(2,3-Dihydro-benzofuran-4-yl)-piperidin-1-yl]-ethyl}-cyclohexyl)-4-fluoro-benzenesulfonamide] registered a melting point of 134 °C. The pKi on human 5-HT2A receptor was 7.06. Besides, the pKi at human D3 receptor is 8.39. Moreover, on human D2 receptor, the pKi was 6.98.
On the same counts, the results for `CN(C)S(=O)(=O)N[C@H]1CC[C@H](CCN2CCC(c3cccc4c3CCO4)CC2)CC1` [Example 51, N′-(trans-4-{2-[4-(2,3-Dihydro-benzofuran-4-yl)-piperidin-1-yl]-ethyl}-cyclohexyl)-N,N-dimethylsulfamide] are 122 °C, 7.71, 8.00 and 6.60.
On the same counts, the results for `N#CCC(=O)N[C@H]1CC[C@H](CCN2CCC(c3cccc4c3CCO4)CC2)CC1` [Example 55, trans-2-Cyano-N-(4-{2-[4-(2,3-dihydro-benzofuran-4-yl)-piperidin-1-yl]-ethyl}-cyclohexyl)-acetamide] are 194 °C, 7.41, 8.44 and 6.86.
In turn, `O=C(N[C@H]1CC[C@H](CCN2CCC(c3cccc4c3CCO4)CC2)CC1)c1ccc(N2CCCCC2)cc1` [Example 56, trans-N-(4-{2-[4-(2,3-Dihydro-benzofuran-4-yl)-piperidin-1-yl]-ethyl}-cyclohexyl)-4-piperidin-1-yl-benzamide] had a melting point of 248 °C. For the same compound, the negative logarithm of the Ki (pKi) at human 5-HT2A receptor is 6.86. Besides, the pKi on human D3 receptor is 7.14. Also, the pKi at human D2 receptor was 5.64.
In the same order, the values of `O=C(N[C@H]1CC[C@H](CCN2CCC(c3cccc4c3CCO4)CC2)CC1)c1ccc(C(F)(F)F)cc1` [Example 57, trans-N-(4-{2-[4-(2,3-Dihydro-benzofuran-4-yl)-piperidin-1-yl]-ethyl}-cyclohexyl)-4-trifluoromethyl-benzamide] are 228 °C, 6.87, 7.18 and 5.84.
Consider `CC(C)(C)C(=O)N[C@H]1CC[C@H](CCN2CCC(c3cccc4c3CCO4)CC2)CC1` [Example 58, trans-N-(4-{2-[4-(2,3-Dihydro-benzofuran-4-yl)-piperidin-1-yl]ethyl}-cyclohexyl)-2,2-dimethyl-propionamide], for which the melting point stood at 192 °C. For the same compound, the pKi at human 5-HT2A receptor is 7.30. In addition, the pKi at human D3 receptor is 7.19. The pKi at human D2 receptor was 6.42.
In the same order, the values of `CC(C)(C)CC(=O)N[C@H]1CC[C@H](CCN2CCC(c3cccc4c3CCO4)CC2)CC1` [Example 59, trans-N-(4-{2-[4-(2,3-Dihydro-benzofuran-4-yl)-piperidin-1-yl]ethyl}-cyclohexyl)-3,3-dimethyl-butyramide] are 193 °C, 7.27, 8.22 and 6.40.
Compound `O=C(CC1CCC1)N[C@H]1CC[C@H](CCN2CCC(c3cccc4c3CCO4)CC2)CC1` [Example 60, trans-2-Cyclobutyl-N-(4-{2-[4-(2,3-dihydro-benzofuran-4-yl)-piperidin-1-yl]-ethyl}-cyclohexyl)-acetamide] registered a melting point of 196 °C. Also, at human 5-HT2A receptor, the pKi was 7.35. In addition, the pKi on human D3 receptor is 8.21. Further, on human D2 receptor, the pKi is 6.52.
In the same order, the values of `O=C(N[C@H]1CC[C@H](CCN2CCC(c3cccc4c3CCO4)CC2)CC1)C1CC1(F)F` (stereo partly drawn) [Example 61, 2,2-Difluoro-cyclopropanecarboxylic acid trans-(4-{2-[4-(2,3-dihydro-benzofuran-4-yl)-piperidin-1-yl]-ethyl}-cyclohexyl)-amide] are 199 °C, 7.28, 8.02 and 6.63.
